The test deals with Caco-2 cells. In words: Trans-epithelial electrical resistance (TEER) across Caco-2 cell monolayer. The class given is cell-based, human. Conditions: Caco-2 monolayer; for TEER 15 minutes after addition: fall >50% of initial value considered significant; for TEER before addition: four replicates. On the procedure: Caco-2 cells (a cell line derived from human colon adenocarcinoma) are grown as a confluent mono-layer on the surface of a porous membrane (pore size 0.4 μm, surface area 0.33 cm^2) separating two aqueous compartments, the upper compartment filled with 200 μl of culture medium, and the lower compartment containing 600 μl of the culture medium. Electrical resistance across the mono-layer is measured using an epithelial voltohmeter connected to electrodes inserted into the medium on either side of the mono-layer in the upper and lower compartments. This trans-epithelial electrical resistance (TEER) is measured immediately before, and fifteen minutes after the addition of aromatic alcohols to the upper compartment (typical results are given in the table below). Fall in TEER is considered indicative of the increased flow of materials (including bulk fluid phase) across the cell monolayer. Falls of greater than 50% of the initial value are considered significant. Reducing the concentration tends to reduce the effect observed.

The mark [1] stands for this setting: agent 0.3 mg/ml in upper compartment.
Where [2] appears, read: baseline immediately before addition of agent at 0.3 mg/ml.

Consider `COc1ccc(O)c(C(C)(C)C)c1` [Butylated hydroxy anisole, butylated hydroxy anisole], for which the “TEER 15 minutes after addition” value under setting [1] worked out at 183 ohm · cm^2. This molecule yielded a TEER before addition under setting [2] of 564 ohm · cm^2.
As for `Cc1cc(C(C)(C)C)c(O)c(C(C)(C)C)c1` [Butylated hydroxy toluene, butylated hydroxy toluene], the “TEER 15 minutes after addition” value under setting [1] turned out to be 194 ohm · cm^2. Further, the TEER before addition under setting [2] was determined as 633 ohm · cm^2.
Regarding `CCCOC(=O)c1cc(O)c(O)c(O)c1` [Propyl gallate, propyl gallate], the “TEER 15 minutes after addition” value runs as follows: (agent 0.2 mg/ml in upper compartment) 629 ohm · cm^2; (agent 13 mg/ml in upper compartment) −0.6 ohm · cm^2. Also, the TEER before addition reads like this: (baseline immediately before addition of agent at 0.2 mg/ml) 667 ohm · cm^2; (baseline immediately before addition of agent at 13 mg/ml) 494 ohm · cm^2.

For the origin of these results see patent US7651995B2, “Absorption enhancers such as e.g. BHT, BHA or propyl gallate” (Axcess Limited, priority 2003, dated 2010).
